Measurements: ChEMBL document CHEMBL3507680, “University of Dundee, Gates Library screen for HepG2 cell viability”

Experiment: Human HepG2 cell viability assay in 384 well format
Type: toxicity, cell-based
Design: dose 125 nL, time 70.5 hour; concentration not given beside the values
Conditions: HepG2 cells, read-out: Inhibition

Going from `Cc1cc(N(C)C)nc(C2(C)CCCN2C(=O)c2cnccn2)n1` (stereo not drawn) to `Cc1ccc(Nc2nccc(C3CCCN(CC(=O)N(C)C)C3)n2)nc1` (stereo not drawn), the cytotoxicity at 70.5 h rises from -21.4% to -16.1%.

Compared with `CC(=O)Nc1nc(C2CCN(C(=O)c3cccnc3)CC2)cs1`, `CC(=O)N1CCC(c2cncc(Oc3ccccc3)n2)CC1` is higher in cytotoxicity at 70.5 h: -15.5% for the first, -2.89% for the second.

Going from `CN1CCN(Cc2cscn2)CC(C(=O)N(C)C)C1` (stereo not drawn) to `CC(C)c1ncc(CN2CCCC(CO)C2)cn1` (stereo not drawn), the cytotoxicity at 70.5 h falls from 15.4% to -8.2%.

Going from `CCn1cc(CN2C[C@@H]3CCCN3C[C@@H]2CCSC)c(C)n1` to `CCOc1nnc(CN2CCN(CCOC)C(CC)C2)s1` (stereo not drawn), the cytotoxicity at 70.5 h rises from -22.6% to 12.8%.

Going from `CC(=O)N1CCCC1c1nccc(C)n1` (stereo not drawn) to `Cc1nc(C2CCCN2C(=O)c2ccccc2)ncc1C(N)=O` (stereo not drawn), the cytotoxicity at 70.5 h rises from -9.48% to -7.95%.

First: Cc1cnc(N)c(C(=O)C2CCN(C(=O)c3ccccc3F)CC2)c1
Second: C=C(C)C(=O)N1CCC(C(=O)c2cc(C)cnc2N)CC1
The cytotoxicity at 70.5 h of the first is lower: -11.6% for the first, 14.9% for the second.

Going from `CN(Cc1ccc(F)cc1)CC1(O)CCN(C(=O)c2cccn2C)C1` (stereo not drawn) to `CN1CCC(c2cccc(Cc3ccc(F)cc3)n2)CC1`, the cytotoxicity at 70.5 h falls from -10.7% to -13.1%.

Going from `Cc1ccccc1C(=O)N1CCC(n2nnc3cc(F)ccc32)CC1` to `O=C(Cc1cccc(F)c1)N1CCCCC1c1ccn2ccnc2n1` (stereo not drawn), the cytotoxicity at 70.5 h rises from -12.1% to 29.6%.

First: Cc1cc(-c2cnc(N3CCNC(=O)C3)nc2-c2cccnc2C)on1
Second: CNc1cc(C)nc(C2CN(Cc3ccc(C)nc3)CCO2)c1 (stereo not drawn)
The cytotoxicity at 70.5 h of the first is lower: -15.9% for the first, -9.06% for the second.

Compared with `COc1ccc(C2Nc3cc(Cl)ccc3C3=NCCN32)cc1OC` (stereo not drawn), `COc1ccc(C2Nc3ccccc3C3=NCCCN32)cc1OC` (stereo not drawn) is lower in cytotoxicity at 70.5 h: 42.1% for the first, 7.54% for the second.

Going from `CC(=O)N1CCC(Cc2cnc(-c3c(C)n[nH]c3C)cn2)C1` (stereo not drawn) to `CC(C)(C)C(=O)N1CCC(c2nc(O)cc(-c3ccccn3)n2)CC1`, the cytotoxicity at 70.5 h rises from -13.1% to 16%.

First: NCCn1nc(C2CCN(C(=O)CC3CCCCC3)C2)c2nccnc21 (stereo not drawn)
Second: Cc1ccc(-c2cc(N)c(=O)n(CC(=O)NCC3CCCCC3)n2)s1
The cytotoxicity at 70.5 h of the first is higher: -7.33% for the first, -16.2% for the second.

Going from `CC1CCCN(CC(=O)N2CCC(c3ncc4c(n3)CCNC4)CC2)C1` (stereo not drawn) to `COCCC(=O)N1CCC(c2noc3nc(C)cc(C(F)(F)F)c23)CC1`, the cytotoxicity at 70.5 h falls from 1.79% to -4.96%.

First: CC(C)(C)c1n[nH]cc1CN1CCc2nc3ccsc3c(=O)n2CC1
Second: O=c1c2sccc2nc2n1CCN(Cc1cccs1)CC2
The cytotoxicity at 70.5 h of the first is higher: 12.1% for the first, -18.8% for the second.

Going from `O=c1c2ccccc2nc2n1CCN(Cc1cccs1)CC2` to `Cc1cc2c(=O)n3c(nc2s1)CCN(C(=O)c1cnn(C)c1C)CC3`, the cytotoxicity at 70.5 h rises from -16.1% to -14.8%.

Going from `O=C(c1ccncc1)N1CCC(O)(Cn2ccc3ccncc32)CC1` to `CC(=O)N1CC(C)CN(C(=O)c2cnccn2)c2ccccc21` (stereo not drawn), the cytotoxicity at 70.5 h rises from -13.3% to -12.2%.

First: O=C(NCCO)C1(Cc2cc(-c3ccc(F)cc3F)no2)CCOCC1
Second: O=C(O)C1(Cc2cccc(-c3ccc(F)c(F)c3)c2)CCOCC1
The cytotoxicity at 70.5 h of the first is higher: -12.3% for the first, -19.2% for the second.

Compared with `CCS(=O)(=O)N1CCC(c2cc3n(n2)[C@@H](C(F)(F)F)C[C@@H](C)N3)CC1`, `O=S(=O)(NCCc1ccccc1C(F)(F)F)N1CCOCC1` is higher in cytotoxicity at 70.5 h: -17.1% for the first, 23.1% for the second.

Compared with `Cc1ccc(S(=O)(=O)N2C[C@H]3C[C@H](NC(=O)c4ccn(C)n4)[C@H]3C2)cc1`, `COC(=O)c1ccc(S(=O)(=O)N2CCCn3ncnc32)s1` is lower in cytotoxicity at 70.5 h: 1.44% for the first, 0.743% for the second.

First: Cc1ccc(-c2cc(N)c(=O)n(CC(=O)NC3CCCCC3)n2)s1
Second: Cc1nc(NC2CCCC2)cc(C2CCN2C(=O)c2cccnc2)n1 (stereo not drawn)
The cytotoxicity at 70.5 h of the first is lower: -17.9% for the first, -9.69% for the second.

First: CN1CCC2(CC1)CNC(=O)c1ccccc1O2
Second: O=S(=O)(NCCc1ccccc1F)N1CCOCC1
The cytotoxicity at 70.5 h of the first is lower: -13.6% for the first, -3.51% for the second.

Going from `Fc1ccc(CN2CCCC(c3nnc(-c4cnccn4)o3)C2)cc1F` (stereo not drawn) to `COc1ccc(Cc2cccc(C3CCN(C)CC3)n2)cc1`, the cytotoxicity at 70.5 h falls from 0.0269% to -6.68%.

First: CNc1cc(C)nc(C2CN(Cc3cc[nH]n3)CCO2)c1 (stereo not drawn)
Second: Cc1ncc(CNC(=O)CCOc2ccccc2)c(C2CCCN2C)n1 (stereo not drawn)
The cytotoxicity at 70.5 h of the first is higher: -7.87% for the first, -8.4% for the second.

Compared with `Cc1nc(CC(=O)N2CCCCC2c2ccn3ccnc3n2)cs1` (stereo not drawn), `CN(Cc1nc(C(F)(F)F)cs1)C(=O)CCc1cccnc1` is higher in cytotoxicity at 70.5 h: -12.6% for the first, -10.4% for the second.

First: CCS(=O)(=O)CCSc1ccc(Cl)cc1
Second: CS(=O)(=O)CCCC(=O)Nc1cc(-c2cccc(F)c2F)n[nH]1
The cytotoxicity at 70.5 h of the first is higher: 27% for the first, -16.7% for the second.

Going from `Cc1oc(C(=O)Nc2cccc(Cl)c2C)cc1S(N)(=O)=O` to `CC(=O)Nc1cc(-c2cccc(F)c2F)n[nH]1`, the cytotoxicity at 70.5 h falls from 0.43% to -5.76%.

Going from `O=C1CCN(C(=O)NCCCc2ccc(Cl)cc2Cl)CCN1` to `COC(=O)c1ccc(NC(C)c2ccc3c(c2)CCC(=O)N3)nn1` (stereo not drawn), the cytotoxicity at 70.5 h falls from -7.65% to -8.66%.

Compared with `CC(C)CC(=O)N(C)Cc1nc(C(F)(F)F)cs1`, `COCCCN1Cc2cccc(NC(=O)C(C)(C)C)c2C1` is higher in cytotoxicity at 70.5 h: -9.65% for the first, 31.1% for the second.

Compared with `c1cc2c(cc1CSCc1noc(C3CC3)n1)OCCO2`, `Cc1ccc(S(=O)(=O)NCCc2nnc[nH]2)c2cccnc12` is higher in cytotoxicity at 70.5 h: -13.8% for the first, 15.2% for the second.
